Where a name gives a salt, the structure may show the parent alone.
Key:
[1] = test system: oxazolone-induced colitis in SJL/J mice
Procedure: Oxazolone colitis is induced as described (Fuss I. J. et al. (2002) J. Immunol. 168: 900). Briefly, mice are pre-sensitized by skin epicutaneous application of 3% oxazolone (4-ethoxymethylene-2-phenyl-2oxazolin-5-one, Sigma) in 100% EtOH (150 μl) on day 0, followed by intrarectal administration of 1% oxazolone in 50% EtOH (100 μl) to anesthetized SJL/J male mice on day 5 through a 3.5 F catheter inserted 4 cm proximal to the anal verge. Mice are divided in three treatment groups and injected i.p. twice a day with: PBS and a compound of the invention. Injections are initiated at day 0 and are continued through day 7 or the end of the study.
A study was carried out using the protocol in Example 20 for oxazolone-induced colitis. Injections were initiated at day 0 and were continued through the end of the study. Disease progression was evaluated for 12 days (6 days after intrarectal administration) by monitoring survival rates and body weight, as well as by macroscopic evidence of colitis (i.e. rectal prolapse, colon size, colon weight). (2-phenylallyl)hydrazine was administered at 10 mg/kg, i.p. twice a day, starting on the day of skin pre-sensitization (day 0). […] Kaplan-Meyer survival curves and unpaired t tests were calculated using GraphPad Prism software (San Diego, Calif.).
Thus, animals from a similar study were sacrificed seven days after initial sensitization and their colons removed and fixed in […]. Tissue processing and analysis were performed blindly at a contract laboratory (Pathology Associates, Frederick, Md.). Briefly, after paraffin embedding 5 μm sections were cut and stained with hematoxylin and eosin. Three cross sections were taken from each animal at 1 cm (section 1), 3 cm (section 2), and 6 cm (section 3) from the anus. The degrees of ulceration, inflammation (in mucosa, submucosa, serosa, and outer muscular layers) and epithelial injury (including mucosal and submucosal abscess, submucosal fibrosis, glandular distortion and mucosal and submucosal edema/hemorrhage), were graded semiquantitatively as 0—absent; 1—minimal; 2—mild; 3—moderate; 4—marked. […] Kaplan-Meyer survival curves were calculated using GraphPad Prism software (San Diego, Calif.).

[2] = test system: collagen-induced arthritis (CIA) in mice; test: Antibody-mediated collagen-induced arthritis in mice; assay type: in vivo; details: 20 mg/kg i.p. twice daily
Procedure: The murine CIA model used in this study is called antibody-mediated CIA, and can be induced by i.v. injection of a combination of different anti-type II collagen monoclonal antibodies (Terato K., et al. (1995). Autoimmunity. 22:137).
In this example, arthrogen-collagen-induced arthritis antibody kits were purchased from Chemicon International (Temecula, Calif.) and arthritis was induced using the manufacturer's protocol. Mice were injected i.v. with a cocktail of 4 anti-collagen Type II monoclonal antibodies (0.5 mg each) on day 0, followed by i.p. injection of 25 μg lipopolysaccharide (LPS) on day 2. Mice develop swollen wrists, ankles, and digits 3-4 days after LPS injection, with disease incidence of 90% by day 7. Severity of arthritis in each limb was scored for 12 days as follows: 0=normal; 1=mild redness, slight swelling of ankle or wrist; 2=moderate redness and swelling of ankle or wrist; 3=severe redness and swelling of some digits, ankle and paw; 4=maximally inflamed limb. Animals were divided in 3 groups of 6 animals: vehicle, methotrexate (MTX)-treated, and compound-treated. Animals in the vehicle group were injected i.p. with phosphate buffer saline (PBS), twice daily for 12 days (starting on day 0). MTX (3 mg/kg) was administered i.p. starting on day 0 and continuing every other day (Mon., Weds., Fri.) for the duration of the experiment.
For each of the two sets of data (arthritis score and paw swelling), a repeated measure analysis was performed to assess the treatment effect.
The relative RT-PCR approach was used. To perform this experiment, a kit from Ambion (USA) was used that employs 18S ribosomal RNA (rRNA) as an internal control. In addition to the rRNA primers, the kit also provides specific primers for the amplification of the different cytokines to be analyzed. […] At the end of the study, animals were euthanized and the right hind paws were extracted and frozen. Total RNA was isolated using 1 ml of Trizol reagent (Invitrogen, USA) per 50-100 mg tissue according to the manufacturer's instructions. […]

[3] = test system: relapsing EAE in SJL/J mice; test: Chronic relapsing EAE (model of chronic multiple sclerosis); assay type: in vivo; details: 10 mg/kg i.p. bid for 53 days
Procedure: An analysis of the use of VAP-1/SSAO inhibitors to treat inflammatory diseases of the CNS is performed through the use of a relapsing experimental autoimmune encephalomyelitis model (EAE) in SJL/J mice.
To examine the role of VAP-1 as a major regulator of lymphocyte recruitment to the CNS, VAP-1/SSAO inhibitor was evaluated in a chronic relapsing EAE model.
Then animals were monitored for signs of paralysis according to a 0-5 scale of scoring system as follows: • 0.5 partial tail weakness • 1 limp tail or waddling gait with tail tonicity; • 1.5 waddling gait with partial tail weakness • 2 waddling gait with limp tail (ataxia); • 2.5 ataxia with partial limb paralysis; • 3 full paralysis of one limb; • 3.5 full paralysis of one limb with partial paralysis of second limb; • 4 full paralysis of two limbs; • 4.5 moribund; • 5 death.
The results are expressed as mean clinical score (FIG. 9A), % incidence (number of mice with any paralysis/10 mice) (FIG. 9B), % mice with chronic disease (mice with at least one relapse) (FIG. 9C), and cumulative total number of relapses (FIG. 9D).

[4] = 10 mg/kg i.p. twice a day from day 0, vs vehicle
[5] = day 7, 20 mg/kg/day from day 0, section 2

**Q.** How did the body weight loss [1, 4] turn out when C=C(CNN)c1ccccc1 [Example 2, Hydrochloride] was run?
**A.** The body weight loss was “significantly improved”.

**Q.** What about the survival rates [1, 4] of the same compound?
**A.** Its survival rates is “significantly improved”.

**Q.** And the “inflammatory index (histology)” value [1, 5]?
**A.** Its value is “significant effect”.

**Q.** What about the “ulceration index (histology)” value [1, 5] of the same compound?
**A.** Its value is “significant effect”.

**Q.** And the final arthritis score ([2]; day 0-11, p=0.0046 vs PBS)?
**A.** Its final arthritis score is “clearly reduced”.

**Q.** What about the paw swelling ([2]; day 0-11, p=0.0060 vs PBS) of the same compound?
**A.** Its paw swelling is “clearly reduced”.

**Q.** And the “levels of TNFα mRNA in the paws (relative RT-PCR, TNFα:18S rRNA)” value ([2]; right hind paws at end of study)?
**A.** Its value is “able to reduce”.

**Q.** What about the “cumulative number of relapses” value ([3]; p<0.0001 vs buffer) of the same compound?
**A.** The value was “statistically significant reduction”.

**Q.** And the “incidence of chronic disease (mice with at least one relapse)” value ([3]; p<0.0001 vs buffer)?
**A.** Its value is “significant lower”.

**Q.** What about the overall clinical severity ([3]; p<0.005 vs buffer) of the same compound?
**A.** The overall clinical severity was “statistically significant reduction”.

Source: patent US20050096360A1, “Inhibitors of semicarbazide-sensitive amine oxidase (SSAO) and VAP-1 mediated adhesion useful for treatment of diseases” (priority 2003, published 2005)
